Source: US11572362B2, “Pyrrolo[1,2-b]pyridazine derivatives” (Gilead Sciences, Inc., priority 2018, dated 2023)

How the values were obtained:
[1] = system: TNFα; assay: IRAK4 Monocyte TNFα Cell Based Assay; conditions: Monocyte; cryopreserved human monocytes, 50 pg/ml LPS, compound 1 hour pre-treatment, 4 hours stimulation, TNFα by TR-FRET
Experimental: IRAK4 Monocyte TNFα Cell Based Assay Procedure:
The cell suspension was then plated at a density of 5,000 cells/well onto black 384 well Greiner clear bottom plates. Plates were pre-spotted with test compounds and serially diluted in DMSO where 40 nL/well were delivered using the Echo 550 acoustic liquid dispenser (Labcyte®) for a final DMSO concentration of 0.1%. Plated cells were treated with compound for 1 hour at 37° C. Cells were then stimulated with 50 pg/ml of LPS (Sigma) excluding outside columns of plate used for unstimulated cell control wells. Cells were incubated for an additional 4 hours at 37° C. Cells were then spun out of the media and 5 μl of sample were taken and analyzed for total TNFα content using the TR-FRET Human TNFα detection system (CisBio). This system utilizes two labeled antibodies (cryptate and XL665) that bind to two different epitopes of the TNFα molecule and produce FRET signal proportional to the concentration of TNFα in the sample. Detection antibodies are mixed 50:50 and 5 μL were dispensed into each well. Plates were covered with clear seals and incubated at room temp overnight. The following morning plates were read using an Envision 2103 Multilabeled reader (PerkinElmer) with excitation/emission/FRET emission at 340 nm/615 nm/665 nm, respectively. Fluorescence intensities at 615 nm and 665 nm emission wavelengths were expressed as a ratio (665 nm/615 nm). Percent of control was calculated as follows: % Control=100×(RatioSample−Ratio0% Stimulation)/(Ratio100% Stimulation−Ratio0% Stimulation)
where unstimulated cells (0% stimulation) were the negative control and stimulated cells (100% stimulation) were used as the positive control.

[2] = target: IRAK4 (Homo sapiens (Human), UniProt Q9NWZ3); assay: IRAK4 Biochemical Assay (TR-FRET/HTRF); conditions: IRAK4 enzyme 0.75 nM, 500 μM ATP, 2 μM STK1 peptide, 120 min
Experimental: IRAK4 Biochemical Assay Procedure:
IRAK4 enzyme (Carna Biosciences, Chuo-ku, Kobe, Japan) activity was measured by detecting phosphorylated peptide substrate formation using an antibody against the phosphorylated peptide substrate. This is a time-resolved fluorescence resonance energy transfer (TR-FRET) immunoassay, based on the STK1 KinEASE Assay (Cisbio, Bedford, Mass.). The assay was designed as a simple two-step, endpoint assay (a 5 μl enzyme reaction followed by 5 μl stop and detect Solution) performed in ProxiPlate-384 Plus plates (Perkin Elmer, Waltham, Mass.). Staurosporine, a non-selective kinase inhibitor was used as a positive control. Compounds diluted in DMSO were spotted into 384 well plates using a Labcyte® Echo 550 Liquid Handling System prior to addition of IRAK4 enzyme and peptide substrate. Reaction solutions were delivered using a Multi-Flo (Bio-Tek Instruments). The enzyme and peptide solution was incubated with compound for 15 minutes at room temp before the reaction was initiated by the addition of ATP. The standard 5 μl reaction mixture contained 500 μM ATP, 2 μM peptide (STK1 Peptide), 0.75 nM of IRAK4 in reaction buffer (50 mM HEPES, pH 7.0, 0.02% NaN3, 0.01% BSA, 0.1 mM Orthovanadate, 5 mM MgCl2, 0.025% NP-40, 1 mM DTT). After 120 min of incubation at room temperature, 5 μl of Stop and Detect Solution (1:100 Cryptate labeled anti-phosphorylated peptide antibody solution and 125 nM Tracer in a 50 mM HEPES pH 7.0 detection buffer containing sufficient EDTA) was added. The plate was then further incubated for 60 minutes at room temperature and read on Envision 2103 Multilabeled reader (PerkinElmer) with excitation/emission/FRET emission at 340 nm/615 nm/665 nm, respectively. Fluorescence intensities at 615 nm and 665 nm emission wavelengths were expressed as a ratio (665 nm/615 nm). Percentage of inhibition was calculated as below: % Inhibition=100×(RatioSample−Ratio0% Inhibition)/(Ratio100% Inhibition−Ratio0% Inhibition)
The 0% inhibition value comes from control wells lacking inhibitor. The 100% inhibition value comes from control wells containing a saturating amount of known inhibitor staurosporine.

Sequence of IRAK4 (Q9NWZ3 whole entry): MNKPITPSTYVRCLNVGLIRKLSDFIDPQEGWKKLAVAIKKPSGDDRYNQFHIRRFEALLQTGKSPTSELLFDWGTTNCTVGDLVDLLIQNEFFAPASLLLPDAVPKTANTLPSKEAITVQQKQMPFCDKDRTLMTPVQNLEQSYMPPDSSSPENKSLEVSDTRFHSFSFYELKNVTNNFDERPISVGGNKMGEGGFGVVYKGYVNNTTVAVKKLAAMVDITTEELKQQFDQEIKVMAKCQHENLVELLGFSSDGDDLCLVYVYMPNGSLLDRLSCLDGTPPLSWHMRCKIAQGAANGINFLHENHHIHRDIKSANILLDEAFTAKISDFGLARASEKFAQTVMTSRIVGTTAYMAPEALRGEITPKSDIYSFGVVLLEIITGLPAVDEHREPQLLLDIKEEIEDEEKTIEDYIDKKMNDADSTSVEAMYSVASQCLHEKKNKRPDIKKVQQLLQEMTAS

Row | Compound | EC50 [1] | IC50 [2]
1 | CC(C)(O)[C@H](F)CNC(=O)c1cnc(-c2ccc3cc(C#N)cnn23)cc1N[C@H]1CC[C@H](c2cncs2)CC1 [Compound 49, 6-(3-cyanopyrrolo[1,2-b]pyridazin-7-yl)-N-((R)-2-fluoro-3-hydroxy-3-methylbutyl)-4-(((1r,4R)-4-(thiazol-5-yl)cyclohexyl)amino)nicotinamide] | 13 nM | < 1 nM
2 | Cc1ncoc1[C@@H]1CCC[C@@H](Nc2cc(-c3ccc4cc(C#N)cnn34)ncc2C(=O)NC[C@@H](F)C(C)(C)O)C1 [Compound 48, 6-(3-cyanopyrrolo[1,2-b]pyridazin-7-yl)-N-((R)-2-fluoro-3-hydroxy-3-methylbutyl)-4-(((1R,3R)-3-(4-methyloxazol-5-yl)cyclohexyl)amino)nicotinamide] | 1050 nM | 10 nM
3 | CC(C)(O)[C@H](F)CNC(=O)c1cnc(-c2ccc3cc(C#N)cnn23)cc1NC1CCC(F)(c2nnc(C(F)F)o2)CC1 (stereo partly drawn) [Compound 43, (R)-6-(3-cyanopyrrolo[1,2-b]pyridazin-7-yl)-4-((4-(5-(difluoromethyl)-1,3,4-oxadiazol-2-yl)-4-fluorocyclohexyl)amino)-N-(2-fluoro-3-hydroxy-3-methylbutyl)nicotinamide] | 39 nM | < 1 nM
4 | CC(C)(O)[C@H](F)CNC(=O)c1cnc(-c2ccc3cc(C#N)cnn23)cc1N[C@H]1CC[C@H](n2cnnn2)CC1 [Compound 38, 4-(((1r,4R)-4-(1H-tetrazol-1-yl)cyclohexyl)amino)-6-(3-cyanopyrrolo[1,2-b]pyridazin-7-yl)-N-((R)-2-fluoro-3-hydroxy-3-methylbutyl)nicotinamide] | 24 nM | < 1 nM
5 | Cc1nn(C(F)F)cc1C1CCC(Nc2cc(-c3ccc4cc(C#N)cnn34)ncc2C(=O)NC[C@@H](F)C(C)(C)O)CC1 (stereo partly drawn) [Compound 9, (R)-6-(3-cyanopyrrolo[1,2-b]pyridazin-7-yl)-4-((4-(1-(difluoromethyl)-3-methyl-1H-pyrazol-4-yl)cyclohexyl)amino)-N-(2-fluoro-3-hydroxy-3-methylbutyl)nicotinamide] | 114 nM | 7 nM
6 | CC(C)(O)[C@H](F)CNC(=O)c1cnc(-c2ccc3cc(C#N)cnn23)cc1N[C@H]1CC[C@H](n2nc(C(F)F)cc2C(F)F)CC1 [Compound 29, 4-(((1r,4R)-4-(3,5-bis(difluoromethyl)-1H-pyrazol-1-yl)cyclohexyl)amino)-6-(3-cyanopyrrolo[1,2-b]pyridazin-7-yl)-N-((R)-2-fluoro-3-hydroxy-3-methylbutyl)nicotinamide] | 381 nM | 7 nM
7 | CC(C)(O)[C@H](F)CNC(=O)c1cnc(-c2ccc3cc(C#N)cnn23)cc1N[C@H]1CC[C@H](n2cc(F)cn2)CC1 [Compound 25, 6-(3-cyanopyrrolo[1,2-b]pyridazin-7-yl)-4-(((1r,4R)-4-(4-fluoro-1H-pyrazol-1-yl)cyclohexyl)amino)-N-((R)-2-fluoro-3-hydroxy-3-methylbutyl)nicotinamide] | 29 nM | 2 nM
8 | CC(C)(O)[C@H](F)CNC(=O)c1cnc(-c2ccc3cc(C#N)cnn23)cc1N[C@H]1CC[C@H](c2cccnc2)CC1 [Compound 55, 6-(3-cyanopyrrolo[1,2-b]pyridazin-7-yl)-N-((R)-2-fluoro-3-hydroxy-3-methylbutyl)-4-(((1r,4R)-4-(pyridin-3-yl)cyclohexyl)amino)nicotinamide] | 25 nM | < 1 nM
9 | CC(C)(O)[C@H](F)CNC(=O)c1cnc(-c2ccc3cc(C#N)cnn23)cc1N[C@H]1CC[C@H](c2ccccn2)CC1 [Compound 54, 6-(3-cyanopyrrolo[1,2-b]pyridazin-7-yl)-N-((R)-2-fluoro-3-hydroxy-3-methylbutyl)-4-(((1r,4R)-4-(pyridin-2-yl)cyclohexyl)amino)nicotinamide] | 18 nM | < 1 nM
10 | Cc1nnc(C23CCC(Nc4cc(-c5ccc6cc(C#N)cnn56)ncc4C(=O)NC[C@@H](F)C(C)(C)O)(CC2)CC3)o1 [Compound 60, (R)-6-(3-cyanopyrrolo[1,2-b]pyridazin-7-yl)-N-(2-fluoro-3-hydroxy-3-methylbutyl)-4-((4-(5-methyl-1,3,4-oxadiazol-2-yl)bicyclo[2.2.2]octan-1-yl)amino)nicotinamide] | 15 nM | < 1 nM
11 | CC(C)(O)[C@H](F)CNC(=O)c1cnc(-c2ccc3cc(C#N)cnn23)cc1N[C@H]1CC[C@H](c2cn(C(F)F)cn2)CC1 [Compound 17, 6-(3-cyanopyrrolo[1,2-b]pyridazin-7-yl)-4-(((1r,4R)-4-(1-(difluoromethyl)-1H-imidazol-4-yl)cyclohexyl)amino)-N-((R)-2-fluoro-3-hydroxy-3-methylbutyl)nicotinamide] | 33 nM | 1 nM
12 | CC(C)(O)[C@H](F)CNC(=O)c1cnc(-c2ccc3cc(C#N)cnn23)cc1NC12CCC(N3CCC(F)(F)CC3)(CC1)CC2 [Compound 68, (R)-6-(3-cyanopyrrolo[1,2-b]pyridazin-7-yl)-4-((4-(4,4-difluoropiperidin-1-yl)bicyclo[2.2.2]octan-1-yl)amino)-N-(2-fluoro-3-hydroxy-3-methylbutyl)nicotinamide] | 38 nM | < 1 nM
13 | CC(C)(O)[C@H](F)CNC(=O)c1cnc(-c2ccc3cc(C#N)cnn23)cc1N[C@H]1CC[C@H](n2cc(C3CC3)nn2)CC1 [Compound 32, 6-(3-cyanopyrrolo[1,2-b]pyridazin-7-yl)-4-(((1r,4R)-4-(4-cyclopropyl-1H-1,2,3-triazol-1-yl)cyclohexyl)amino)-N-((R)-2-fluoro-3-hydroxy-3-methylbutyl)nicotinamide] | 63 nM | 1 nM
14 | Cc1c([C@H]2CC[C@H](Nc3cc(-c4ccc5cc(C#N)cnn45)ncc3C(=O)NC[C@@H](F)C(C)(C)O)CC2)cnn1C(F)F [Compound 11, 6-(3-cyanopyrrolo[1,2-b]pyridazin-7-yl)-4-(((1r,4R)-4-(1-(difluoromethyl)-5-methyl-1H-pyrazol-4-yl)cyclohexyl)amino)-N-((R)-2-fluoro-3-hydroxy-3-methylbutyl)nicotinamide] | 17 nM | 1 nM
15 | CC(C)(O)[C@H](F)CNC(=O)c1cnc(-c2ccc3cc(C#N)cnn23)cc1N[C@H]1CC[C@H](c2nnc(C3CC3)o2)CC1 [Compound 41, 6-(3-cyanopyrrolo[1,2-b]pyridazin-7-yl)-4-(((1r,4R)-4-(5-cyclopropyl-1,3,4-oxadiazol-2-yl)cyclohexyl)amino)-N-((R)-2-fluoro-3-hydroxy-3-methylbutyl)nicotinamide] | 38 nM | < 1 nM
16 | CC(C)(O)[C@H](F)CNC(=O)c1cnc(-c2ccc3cc(C#N)cnn23)cc1N[C@H]1CC[C@H](n2cc(C(F)(F)F)cn2)CC1 [Compound 30, 6-(3-cyanopyrrolo[1,2-b]pyridazin-7-yl)-N-((R)-2-fluoro-3-hydroxy-3-methylbutyl)-4-(((1r,4R)-4-(4-(trifluoromethyl)-1H-pyrazol-1-yl)cyclohexyl)amino)nicotinamide] | 136 nM | 4 nM
17 | CC(C)(O)[C@H](F)CNC(=O)c1cnc(-c2ccc3cc(C#N)cnn23)cc1N[C@H]1CC[C@H](n2cnnc2C(F)F)CC1 [Compound 37, 6-(3-cyanopyrrolo[1,2-b]pyridazin-7-yl)-4-(((1r,4R)-4-(3-(difluoromethyl)-4H-1,2,4-triazol-4-yl)cyclohexyl)amino)-N-((R)-2-fluoro-3-hydroxy-3-methylbutyl)nicotinamide] | 40 nM | 1 nM
